Measurements from ChEMBL document CHEMBL3507680, “University of Dundee, Gates Library screen for HepG2 cell viability”.

Test: Human HepG2 cell viability assay in 384 well format
Assay type: toxicity, cell-based
Set-up: dose 125 nL, time 70.5 hour; concentration not given beside the values
Details: HepG2 cells, read-out: Inhibition

Compound | cytotoxicity at 70.5 h [%]
O=C(NCc1cc(F)cc(Br)c1)C1(O)CCSCC1 | -4.03
O=C(NCc1ccc(Br)cc1F)C1(O)CCSCC1 | -2.81
CCOc1ccc(Cl)c(C(=O)N2CCCC(N3CCCC3)C2)n1 (centres undefined) | -2.98
CC(C)c1nccn1CCC(=O)NCC(C)(O)c1ccco1 (centres undefined) | -5.68
CC(C)COC(=O)N1CCCN(C(C)c2nc(C(C)C)no2)CC1 (centres undefined) | -3.98
CCc1nnc(C(C)N2CCCN(C(=O)OCC(C)C)CC2)o1 (centres undefined) | 7.35
O=C(c1ccn(-c2ccc(F)cc2)n1)N(CCO)Cc1cccnc1 | 15.5
Cc1noc(C)c1CN(C)CC1CC(C2CCCCC2)=NO1 (centres undefined) | -2.46
CC(C)c1nc(CNc2ccc(N3CCC(CO)CC3)cn2)cs1 | 1.5
Cc1cc(CN(C)C(=O)NCc2ccco2)no1 | -2.34
Cc1noc(C)c1CN(C)C(=O)NC(C)Cc1ccco1 (centres undefined) | -1.49
COc1ccc2c(c1)CN(c1nc(C)cc(C)n1)CC2 | 3.73
CS(=O)(=O)c1ccc2c(c1)N(C(=O)Cc1cccc(F)c1)CCC2 | -0.9
CC(NC(=O)Nc1cnn(CC(N)=O)c1)c1ccc(Cl)s1 (centres undefined) | -1.05
CCc1ccc(O)c(C(=O)N2CCN(CC(=O)N3CCCCC3)CC2)c1 | 11.8
COCC(C)NC(=O)N(C)Cc1cc(C)on1 (centres undefined) | -5.5
COC(=O)C(CNC(=O)Nc1nncs1)Cc1cccc(C)c1 (centres undefined) | -3.4
CC(Cn1cncn1)NC(=O)NCC(C)(C)Cc1ccccc1 (centres undefined) | -4.62
Cc1ccc(C(C)(C)CNC(=O)NC(C)Cn2cncn2)cc1 (centres undefined) | -0.962
CCC(CO)NC(=O)Nc1ccc(OCC(F)(F)F)c(C)c1 (centres undefined) | -1.78
CC(C)n1nc2c(cc1=O)CN(Cc1nc(-c3ccco3)no1)CC2 | -5.7
CC(CO)NC(=O)Nc1ccc(Cl)cc1OCC(F)(F)F (centres undefined) | -4.37
Cc1cc(NC(=O)NC(C)CO)ccc1OCC(F)(F)F (centres undefined) | -2.25
CN(C(=O)c1ccncc1F)c1ccccc1S(C)(=O)=O | -1.8

Compound | cytotoxicity at 70.5 h [%]
CN(C(=O)c1ccncc1Cl)c1ccccc1S(C)(=O)=O | 12.1
Cc1ccc(CNc2ccc(N3CCC(CO)CC3)cn2)o1 | -2.34
OCC1CCN(c2ccc(NCc3ccsc3)nc2)CC1 | -5.76
Cc1cnc(C(=O)N2CCC(COCc3ccccc3)C2)cn1 (centres undefined) | -2.03
Cc1noc(CCCC(=O)NCC(c2ccco2)N2CCCCC2)n1 (centres undefined) | -3
CCN(CC)CCCC(C)NC(=O)c1cccnc1-n1cccn1 (centres undefined) | 3.18
COC(=O)CN(C(=O)c1ccoc1)c1cccc(F)c1 | -8.55
COCCCNc1cc(C(=O)N2CCOCC2)ccc1C | -17.5
Cc1ccc(C(NC(=O)CN2CCc3c(ncn3C)C2)C2CC2)cc1 (centres undefined) | -16.3
CC(C)c1nc2cc(NC(=O)Cn3ccc(=O)[nH]c3=O)ccc2o1 | -8.49
CS(=O)(=O)N1CCCC(C(=O)N2CCOc3ccccc32)C1 (centres undefined) | -14.4
CSC(C)(C)CNC(=O)NC1CCC1 | -1.66
CC(=O)NCC(=O)NC1CCc2nccn2C1 (centres undefined) | 7.09
CN(C)c1ncccc1NC(=O)C1CN(Cc2ccccc2)CCO1 (centres undefined) | -2.14
CCCC(NC(=O)c1ccccc1Br)c1nnn[nH]1 (centres undefined) | -3.33
CCS(=O)(=O)CC(=O)NC1CCc2nccn2C1 (centres undefined) | -4.08
O=C(O)c1ccn(-c2ccccc2NS(=O)(=O)c2cccc(F)c2)n1 | 7.58
CC(C)(C)n1cc(NC(=O)C2CN(Cc3ccccc3)CCO2)cn1 (centres undefined) | -0.308
CCCC(NC(=O)c1ccc(OC)cc1C)c1nnn[nH]1 (centres undefined) | 8.62
CCCC(NC(=O)c1cncc(C)c1)c1nnn[nH]1 (centres undefined) | 6.22
CSC(C)(C)CNC(=O)NC1CCN(CC(F)F)CC1 | -1.88
O=C(NC1CCN(c2cccc(OC(F)(F)F)c2)C1=O)C1CCC1 (centres undefined) | -2.94
COc1ccc(C2CCCN2C(=O)NCCCn2cccn2)cc1 (centres undefined) | -11
CCOCC(=O)NCc1cc(Br)ccc1OC(F)F | 0.394

Compound | cytotoxicity at 70.5 h [%]
CC(C)N(C)CCNC(=O)N1CCN(Cc2ccon2)CC1 | -5.35
Cc1cc(C)cc(C(=O)Nc2cccc(CN3CCCC3C(N)=O)c2)c1 (centres undefined) | 6.78
COc1cccc(Cc2nnc(SCCS(C)(=O)=O)o2)c1 | -8.26
Cc1cccc(NC(=O)[C@@H]2CCCN2Cc2nc(C)c(C)o2)n1 | -9.4
c1nc(N2CCCC(Cn3cncn3)C2)c2ccsc2n1 (centres undefined) | 38.8
O=C(C1CC1)N1CCN(C(=O)C2CC(=O)N(c3ccccc3Br)C2)CC1 (centres undefined) | 26.2
COc1ncccc1CNC(=O)N1CCC(CNC(C)=O)CC1 | -8.01
CCN1CCC(CNC(=O)Nc2cccnc2OC)CC1 | -6.19
CCS(=O)(=O)c1ccc(N2CCC(NC(=O)C3CCCCC3)CC2)cc1 | 0.314
COc1cccc(S(=O)(=O)CCN2CCN(CCO)CC2)c1 | -2.82
Cc1ccc(C)c(NC(=O)Cc2c(C)nc3c(c2C)c(=O)[nH]n3C)c1 | 29.5
Cc1nn(CCO)c(C)c1CNC1CCc2c(F)cccc21 (centres undefined) | 0.27
Cn1c(C(=O)N2CCC(C(N)=O)C2)c(Cl)c2ccccc21 (centres undefined) | -5.34
Cc1nc2c(c(C)c1CC(=O)Nc1ccccc1F)c(=O)[nH]n2C | 4.76
CCS(=O)(=O)c1ccc(N2CCC(NC(=O)c3ccccn3)CC2)cc1 | 29
O=C(NCCc1ccccn1)NC1CCN(c2ccccc2)C1=O (centres undefined) | 1.75
Cc1cc(C)n(CC2CCCN2CC(=O)Nc2nncs2)n1 (centres undefined) | 30
Cc1cnn(CC2CCCCN2CC(=O)Nc2nncs2)c1 (centres undefined) | -1.03
Cc1cc(C)n(CC2CCCCN2CC(=O)Nc2c(C)n[nH]c2C)n1 (centres undefined) | 2.06
CC(C)(C)S(=O)(=O)CCNC(=O)NCCCc1cccc(F)c1 | 29
COCCS(=O)(=O)N1CCN(c2cccc(O)c2)CC1 | -2.61
COC1CCN(C(=O)C2CC(=O)N(c3ccccc3Br)C2)CC1 (centres undefined) | -8.26
Cc1cc(C)n(CC2CCCCN2CC(=O)Nc2nccs2)n1 (centres undefined) | -5.53
CC(C)COCCC(=O)Nc1ccc2oc(=O)n(CCN(C)C)c2c1 | 17.6

Compound | cytotoxicity at 70.5 h [%]
CN(C)CCn1c(=O)oc2ccc(NC(=O)CSc3ccccc3)cc21 | 6.5
O=C(CCNS(=O)(=O)c1ccc(F)c(F)c1)NCc1ccoc1 | -3.45
CCc1ccc(CNC(=O)NC2CCCc3c2cnn3CCO)s1 (centres undefined) | -2.75
Cc1csc(CNC(=O)NC2CCCc3c2cnn3CCO)n1 (centres undefined) | -9.89
O=C(NCC1CCCCC1)NC1CCCc2c1cnn2CCO (centres undefined) | -7.67
CC(C)(O)CN1CCN(C(=O)c2cnn(-c3ccccc3F)c2)CC1 | -4.5
Cc1cc(C(=O)Nc2ccc3oc(=O)n(CCN(C)C)c3c2)c(C)o1 | 9.45
Cc1nn(C)c(C)c1C1COCCN1c1ncnc2c(C)cccc12 (centres undefined) | -6.31
CC1COCCN1c1ncnc2sccc12 (centres undefined) | 6.87
CC(C)(C)OC(=O)NCCc1csc(N2CCCC2)n1 | -3.27
CCN(CC1CN(Cc2c(C)noc2C)CCO1)c1cccnn1 (centres undefined) | 12.5
Cc1nn(C)c(C)c1C1CCCN1c1ncnc2sccc12 (centres undefined) | 3.73
CCOc1cccc(C(=O)N(CCC#N)Cc2ccccn2)c1 | -0.366
CCN(CC1CN(Cc2ccn(C(C)C)n2)CCO1)c1cccnn1 (centres undefined) | 1.41
Cc1ccc(N2CCCC(NCCCS(C)(=O)=O)C2)nn1 (centres undefined) | -7.73
Clc1cnccc1N1CCCOCC1 | -5.38
CNC(=O)C1Cc2ccccc2CN1CCC#N (centres undefined) | 4.8
COc1ccccc1N(C)S(=O)(=O)c1cc(C(=O)O)cs1 | -4.98
CC(C)N1CCC(NC(=O)NC2CCOc3ccc(Br)cc32)CC1 (centres undefined) | 0.813
Cc1ncc2c(n1)CN(Cc1cccc3c1OCCO3)CC2 | -1.1
COCC(C)(CCO)NC(=O)Nc1cccc(F)c1C (centres undefined) | 21.4
CC(=O)N1CCCC1c1cccc(C)c1C (centres undefined) | -4.04
CN(CCCc1n[nH]c(N)c1C#N)C(=O)Nc1cc(Cl)cc(Cl)c1 | -11.9
NC(=O)C1CCCCN1C(=O)c1ccc(Br)s1 (centres undefined) | -5.06

Compound | cytotoxicity at 70.5 h [%]
Cc1nn(C)c(C)c1CCC(=O)Nc1nnc(C2CC2)s1 | 22.3
CC(NC(=O)NCCNc1cccc(F)c1C#N)c1cccs1 (centres undefined) | -4.54
CS(=O)(=O)NCC1CCCCN1C(=O)c1ccc(Br)s1 (centres undefined) | -6.12
OC1CCN(c2ccc(CNc3nc4ccccc4o3)cc2F)CC1 | -9.97
CC(CNC(=O)C1(c2ccc(F)cc2)CC1)CN1CCCC1=O (centres undefined) | 15.4
OC1CCN(c2ccc(CNc3nc4ccccc4s3)cc2F)CC1 | -9.14
NC(=O)NCC1CCCCN1C(=O)c1ccc(Br)s1 (centres undefined) | -8.99
NC(=O)NCC1CCCCN1C(=O)c1ccc(Cl)s1 (centres undefined) | -8.02
Cc1c(C(=O)NC2(C#N)CCSC2)nnn1-c1ccccc1Cl (centres undefined) | -5.68
CC(NC(=O)NCCNc1cccc(F)c1C#N)c1nccs1 (centres undefined) | -2.26
CN(C(=O)COCc1ccccc1)C1CCN(CC2CCOC2)CC1 (centres undefined) | -7.68
CN1CCN(S(C)(=O)=O)c2ccc(F)cc21 | -11.1
O=C(Nc1cc(C2CCOCC2)[nH]n1)c1ccc(Cl)cn1 | -1.48
CC(C#N)CNS(=O)(=O)c1ccc(F)c(Br)c1 (centres undefined) | -7.42
O=c1c2cccnc2cnn1CC(O)c1cccc(Cl)c1 (centres undefined) | 13.3
N#CC1(NC(=O)c2ccn(-c3ccccc3Cl)n2)CCSC1 (centres undefined) | -10.3
COc1ncnc(N(C)C)c1NC(=O)Cc1c[nH]c2ccc(F)cc12 | -7.3
Cc1ccc(S(=O)(=O)NC(C)C#N)cc1Br (centres undefined) | -3.42
COc1cc(F)c(S(=O)(=O)N2c3ncccc3NC(=O)C2C)cc1OC (centres undefined) | -5.44
O=C(C[S+]([O-])Cc1ccc(Cl)cc1Cl)N1CCc2sccc2C1 (centres undefined) | -3.09
O=C(Nc1cc(C2CCOCC2)[nH]n1)c1cc[nH]n1 | -4.17
CCN(Cc1ccoc1)C(=O)c1cc(C)c(C)c(S(N)(=O)=O)c1 | -9.16
COc1ccc(S(=O)(=O)NCC(N)c2ccccc2)c(C)c1 (centres undefined) | -5.68
